The values below come from patent publication US20160208297A1, “OMEGA3 UNSATURATED FATTY ACID ENZYME AND METHOD FOR PRODUCING EICOSAPENTAENOIC ACID” (KYOTO UNIVERSITY, priority 2013, published 2016).

The test system of this assay is polypeptide (SEQ ID NO: 2) ω3 desaturase. Briefly: conversion of added ω6 unsaturated fatty acids to ω3 unsaturated fatty acids by yeast transformant expressing the cDNA (SEQ ID NO: 1). Format: cell-based, Pythium folliculosum. The following applies: for conversion into the corresponding ω3 unsaturated fatty acid / Conversion rate (%): Saccharomyces cerevisiae InvSc1 transformant, 28° C., two days; for Conversion rate (%): substrate added to medium, [product amount/(substrate amount + product amount)] × 100. How it is done: The cDNA (SEQ ID NO: 1) prepared in the above was integrated into a yeast expression vector, pYE22m (Biosci. Biotech. Biochem., 1995, 59: 1221-1228). The vector was introduced into Saccharomyces cerevisiae InvSc1 strain (tryptophan auxotrophy […]) by an electroporation method to obtain a transformant. The transformant was cultured in YPD culture medium (polypeptone 20 g, yeast extract 10 g, adenine 0.4 g, agar 20 g and glucose 20 g were diluted in 1,000 mL of water) at 28° C. for one day to express the polypeptide from cDNA integrated therein. Note that ω3 desaturase inherent in the oleaginous yeast is not expressed in this culture condition. Subsequently, to the culture medium, an ω6 unsaturated fatty acid: linoleic acid (LA, 18: 2n-6), γ-linolenic acid (GLA, 18: 3n-6), dihomo-γ-linolenic acid (DGLA, 20: 3n-6), or arachidonic acid (ARA, 20: 4n-6) was added and cultured at 28° C. for two days. Thereafter the amounts of the corresponding ω3 unsaturated fatty acid: α-linolenic acid (ALA, 18: 3n-3), stearidonic acid (SDA, 18: 4n-3), eicosatetraenoic acid (ETA, 20: 4n-3) or eicosapentaenoic acid (EPA, 20: 5n-3) produced by ω3 unsaturation were measured.

Turning to `CCCCC/C=C\C/C=C\C/C=C\C/C=C\CCCC(=O)O` [AA, arachidonic acid], the “conversion into the corresponding ω3 unsaturated fatty acid” value is “converted into the corresponding ω3 unsaturated fatty acids” and the “Conversion rate (%)” value is listed as 7.86%.

For the molecule `CCCCC/C=C\C/C=C\C/C=C\CCCCCCC(=O)O` [DGLA, dihomo-γ-linolenic acid], the “conversion into the corresponding ω3 unsaturated fatty acid” value is given as “converted into the corresponding ω3 unsaturated fatty acids” and the “Conversion rate (%)” value was 6.90%.

As for `CCCCC/C=C\C/C=C\C/C=C\CCCCC(=O)O` [GLA, γ-linolenic acid], the “conversion into the corresponding ω3 unsaturated fatty acid” value is on record as “converted into the corresponding ω3 unsaturated fatty acids” and the “Conversion rate (%)” value is on record as 8.36%.

With `CCCCC/C=C\C/C=C\CCCCCCCC(=O)O` [LA, linoleic acid], the “conversion into the corresponding ω3 unsaturated fatty acid” value is “converted into the corresponding ω3 unsaturated fatty acids” and the “Conversion rate (%)” value is given as 3.03%.

B1: polypeptide (SEQ ID NO: 2): ω3 desaturase derived from Pythium folliculosum or Pythium torulosum, encoded by cDNA SEQ ID NO: 1 (protein, listed as Pythium folliculosum)
chain: MADVNTSSPAAAPVATPEPFEFPSLTELKRSIPARYFESSAPRSLLFTARAFAFAYAFGAALFHARQLPLVAEHAALDALLCAAYTFLQGVNMWGFFTIGHDCGHGSFSRYHLLNFVVGTLTHSLILTPYEAWKLSHRLHHKNTGNIDQDEIFYPQRKETVNDPARKMVLSFGLAWWIYEIIGFPPRTEEHTELRDSLFSRHLITGSLSVLAHLACVMLAFNLTYVLGWATMGVYYWAPLFVFASMLVITTFLHHNDEETPWYADSEWTYVKGNLSSVDRDYGWVVNHLSHNIGTHQVHHLFPIIPHYNLNGATEYFRKAFPHLVRKSDDRILPAFVRVGLLYVKYGVIENDAKHFSLKDNREVLTKRA
modifications: Omega-3 desaturase
With B1, under “expressed in Saccharomyces cerevisiae InvSc1, 28° C.”, the ω3 desaturation activity entry was “an enzyme having ω3 desaturation activity at normal temperature”.
